In ChEMBL document CHEMBL5523757, “Discovery, Synthesis, and Activity Evaluation of Novel Five-Membered Sulfur-Containing Heterocyclic Nucleosides as Potential Anticancer Agents In Vitro and In Vivo” (J Med Chem, 2024):

Key:
Assay type in all cases: functional, cell-based
HCT-116 = assay: Antiproliferative activity against human HCT-116 cells assessed as inhibition of cell growth incubated for 48 hrs by CCK-8 assay
HeLa = assay: Antiproliferative activity against human HeLa cells assessed as inhibition of cell growth incubated for 48 hrs by CCK-8 assay
MCF7 = assay: Antiproliferative activity against human MCF7 cells assessed as inhibition of cell growth incubated for 48 hrs by CCK-8 assay
HepG2 = assay: Antiproliferative activity against human HepG2 cells assessed as inhibition of cell growth incubated for 48 hrs by CCK-8 assay
PANC-1 = assay: Antiproliferative activity against human PANC-1 cells assessed as inhibition of cell growth incubated for 48 hrs by CCK-8 assay
A549 = assay: Antiproliferative activity against human A549 cells assessed as inhibition of cell growth incubated for 48 hrs by CCK-8 assay

SMILES | IC50 (HCT-116; Homo sapiens, HCT-116, 48 h) | IC50 (HeLa; Homo sapiens, HeLa, 48 h) | IC50 (MCF7; Homo sapiens, MCF7, 48 h) | also measured
CCOC(=O)C[C@H]1C[S+]([O-])C[C@]1(C(=O)OCC)n1cnc2c(Cl)nc(Cl)nc21 (stereo not given in full) | 17.1 µM | 10.5 µM | 25.9 µM | –
CCOC(=O)C[C@H]1CSC[C@]1(C(=O)OCC)n1cnc2c(Cl)nc(Cl)nc21 | – | – | – | IC50 (HepG2; hepg2): > 50 µM; IC50 (HCT-116; hct-116): 4.16 µM; IC50 (HeLa; hela): 7.43 µM; IC50 (PANC-1; panc-1): 27.5 µM; IC50 (A549; a549): > 50 µM; IC50 (MCF7; mcf7): 5.82 µM
CCOC(=O)C[C@@H]1CSC[C@@]1(C(=O)OCC)n1cnc2c(Cl)nc(Cl)nc21 | 3.69 µM | 2.78 µM | 4.54 µM | IC50 (HepG2; Homo sapiens, HepG2, 48 h): 23.8 µM; IC50 (PANC-1; Homo sapiens, PANC-1, 48 h): 11.1 µM; IC50 (A549; Homo sapiens, A549, 48 h): 41.4 µM
CCOC(=O)C[C@H]1CS(=O)(=O)C[C@]1(C(=O)OCC)n1cnc2c(Cl)nc(Cl)nc21 | 11.2 µM | 7.67 µM | 16.2 µM | –
CCOC(=O)C[C@H]1CSC[C@]1(C(=O)OC)n1cnc2c(Cl)ncnc21 (racemic) | 19.2 µM | 11.6 µM | > 50 µM | –
CCOC(=O)C[C@@H]1CSC[C@]1(C(=O)OC)n1cnc2c(Cl)ncnc21 (racemic) | 31.8 µM | 12.5 µM | > 50 µM | –
CCOC(=O)C[C@@H]1CSC[C@]1(C(=O)OCC)n1cnc2c(N3CCCC3)ncnc21 (racemic) | > 50 µM | > 50 µM | > 50 µM | –
CCOC(=O)C[C@H]1CSC[C@]1(C(=O)OCC)n1cnc2c(N3CCCC3)ncnc21 (racemic) | > 50 µM | > 50 µM | > 50 µM | –
CCOC(=O)C[C@@H]1CSC[C@]1(C(=O)OCC)n1cnc2c(OC)ncnc21 (racemic) | > 50 µM | > 50 µM | > 50 µM | –
CCOC(=O)C[C@@H]1CSC[C@]1(C(=O)OCC)n1cnc2c(-c3ccccc3)ncnc21 (racemic) | 25.1 µM | 42.9 µM | 19.4 µM | –
CCOC(=O)C[C@@H]1CSC[C@]1(C(=O)OCC)n1cnc2cnc(Cl)nc21 (racemic) | > 50 µM | > 50 µM | > 50 µM | –
CCOC(=O)C[C@H]1CSC[C@]1(C(=O)OCC)n1cnc2c(OC)ncnc21 (racemic) | > 50 µM | > 50 µM | > 50 µM | –
CCOC(=O)C[C@@H]1CSC[C@]1(C(=O)OCC)n1cnc2c(N3CCCCC3)ncnc21 (racemic) | 32 µM | > 50 µM | 42.2 µM | –
CCOC(=O)C[C@@H]1CSC[C@]1(C(=O)OCC)n1cnc2c(N(C)C)ncnc21 (racemic) | > 50 µM | > 50 µM | > 50 µM | –
CCOC(=O)C[C@@H]1CSC[C@]1(C(=O)OCC)n1cnc2c(Cl)nc(Cl)nc21 (racemic) | 6.89 µM | 9.5 µM | 4.06 µM | –
CCOC(=O)C[C@@H]1CSC[C@]1(C(=O)OC(C)C)n1cnc2c(Cl)ncnc21 (racemic) | 38.2 µM | 13.6 µM | 44.8 µM | –
CCOC(=O)C[C@H]1CSC[C@]1(C(=O)OCC)n1cnc2cnc(Cl)nc21 (racemic) | > 50 µM | > 50 µM | > 50 µM | –
CCCSc1ncnc2c1ncn2[C@@]1(C(=O)OCC)CSC[C@H]1CC(=O)OCC (racemic) | 38.5 µM | > 50 µM | 23.5 µM | –
CCOC(=O)C[C@@H]1CSC[C@]1(C(=O)OCC)n1cnc2c(OCc3ccccc3)ncnc21 (racemic) | > 50 µM | > 50 µM | > 50 µM | –
CCOC(=O)C[C@H]1CSC[C@]1(C(=O)OCC)n1cnc2c(-c3ccccc3)ncnc21 (racemic) | 17.3 µM | 26.2 µM | > 50 µM | –
CCOC(=O)C[C@H]1CSC[C@]1(C(=O)OCC)n1cnc2c(OCC)ncnc21 (racemic) | > 50 µM | > 50 µM | > 50 µM | –
CCOC(=O)C[C@H]1CSC[C@]1(C(=O)OCC)n1cnc2c(N(CC)CC)ncnc21 (racemic) | > 50 µM | > 50 µM | > 50 µM | –

SMILES | IC50 (HCT-116; Homo sapiens, HCT-116, 48 h) | IC50 (HeLa; Homo sapiens, HeLa, 48 h) | IC50 (MCF7; Homo sapiens, MCF7, 48 h) | also measured
CCOC(=O)C[C@H]1CSC[C@]1(C(=O)OCC)n1cnc2c(Br)ncnc21 (racemic) | 30.1 µM | 14.4 µM | 19.4 µM | –
CCOC(=O)C[C@H]1CSC[C@]1(C(=O)OCC)n1cnc2c(N(C)C)ncnc21 (racemic) | > 50 µM | > 50 µM | > 50 µM | –
CCOC(=O)C[C@H]1CSC[C@]1(C(=O)OCC)n1cnc2c(Cl)nc(F)nc21 (racemic) | 11 µM | 8.8 µM | 22.9 µM | –
CCOC(=O)C[C@H]1CSC[C@]1(C(=O)OC(C)C)n1cnc2c(Cl)ncnc21 (racemic) | 14.7 µM | 9.99 µM | 13 µM | –
CCOC(=O)C[C@H]1CSC[C@]1(C(=O)OCC)n1cnc2c(Cl)ncnc21 (racemic) | 15.5 µM | 6.81 µM | 12 µM | –
CCOC(=O)C[C@@H]1CSC[C@]1(C(=O)OCC)n1cnc2c(Cl)ncnc21 (racemic) | 19.4 µM | 12.5 µM | 43.5 µM | –
CCOC(=O)C[C@@H]1CSC[C@]1(C(=O)OCC)n1cnc2cncnc21 (racemic) | > 50 µM | > 50 µM | > 50 µM | –
CCOC(=O)C[C@H]1CSC[C@]1(C(=O)OCC)n1cnc2cncnc21 (racemic) | > 50 µM | > 50 µM | > 50 µM | –
CCOC(=O)C[C@@H]1CSC[C@]1(C(=O)OCC)n1cnc2c(Cl)nc(F)nc21 (racemic) | 15.9 µM | 14.5 µM | 27.9 µM | –
CCOC(=O)C[C@@H]1CSC[C@]1(C(=O)OCC)n1cnc2c(OCC)ncnc21 (racemic) | 19.8 µM | > 50 µM | > 50 µM | –
CCCSc1ncnc2c1ncn2[C@@]1(C(=O)OCC)CSC[C@@H]1CC(=O)OCC (racemic) | 25.9 µM | 37.2 µM | 30.9 µM | –
CCOC(=O)C[C@H]1CSC[C@]1(C(=O)OCC)n1cnc2c(N3CCOCC3)ncnc21 (racemic) | > 50 µM | > 50 µM | > 50 µM | –
CCOC(=O)C[C@@H]1CSC[C@]1(C(=O)OCC)n1cnc2c(N3CCCCC3)nc(Cl)nc21 (racemic) | > 50 µM | > 50 µM | 34 µM | –
CCOC(=O)C[C@H]1CSC[C@]1(C(=O)OCC)n1cnc2c(OCc3ccccc3)ncnc21 (racemic) | 13.2 µM | 13.7 µM | 12.7 µM | –
CCOC(=O)C[C@@H]1CSC[C@]1(C(=O)OCC)n1cnc2c(Br)ncnc21 (racemic) | > 50 µM | 49.6 µM | > 50 µM | –
CCOC(=O)C[C@H]1CSC[C@]1(C(=O)OCC)n1cnc2c(N3CCCC3)nc(Cl)nc21 (racemic) | 46.6 µM | > 50 µM | 38.3 µM | –
CCOC(=O)C[C@H]1CSC[C@]1(C(=O)OCC)n1cnc2c(N3CCCCC3)nc(Cl)nc21 (racemic) | 22.6 µM | 22.4 µM | > 50 µM | –
CCOC(=O)C[C@@H]1CSC[C@]1(C(=O)OCC)n1cnc2c(N(CC)CC)ncnc21 (racemic) | 41.5 µM | > 50 µM | > 50 µM | –
CCOC(=O)C[C@@H]1CSC[C@]1(C(=O)OCC)n1cnc2c(N3CCCC3)nc(Cl)nc21 (racemic) | 34 µM | 38.3 µM | > 50 µM | –
CCOC(=O)C[C@@H]1CSC[C@]1(C(=O)OCC)n1cnc2c(N3CCOCC3)ncnc21 (racemic) | > 50 µM | > 50 µM | > 50 µM | –
CCOC(=O)C[C@H]1CSC[C@]1(C(=O)OCC)n1cnc2c(N3CCCCC3)ncnc21 (racemic) | 22.8 µM | > 50 µM | 23.8 µM | –
O=c1[nH]cc(F)c(=O)[nH]1 [FLUOROURACIL] | 8.75 µM | 9.75 µM | 11.6 µM | IC50 (HepG2; Homo sapiens, HepG2, 48 h): 12.9 µM; IC50 (PANC-1; Homo sapiens, PANC-1, 48 h): 44.1 µM
